From patent US12171230B2, “Herbicidal compositions” (Bayer Aktiengesellschaft, priority 2018, dated 2024)

Columns and labels:
Format in all cases: in vivo
[1] = test system: Panicum maximum; experiment: Post-emergence herbicidal action against Panicum maximum; details: g of a.i./ha: 200, 100, 100 + 200
Experimental: (§1) When the observed efficacies exceed the formal sum total of the values of the tests with individual applications, they also exceed the expected value according to Colby, which is calculated using the formula below and is likewise regarded as an indication of synergism (cf. S. R. Colby; in Weeds 15 (1967) p. 20 to 22): E^C=A+B−([…])
(§2) Here: • A=efficacy of the active compound (A) in % at an application rate of a g a.i./ha; • B=efficacy of the active compound (B) in % at an application rate of b g a.i./ha; • E^C=expected value of the effect of the combination (A)+(B) in % at the combined application rate a+b g a.i./ha.
(§3) Seeds or rhizome pieces of mono- and dicotyledonous weeds are placed in sandy loam in pots, covered with soil and grown in a greenhouse under good growth conditions (temperature, air humidity, water supply). Three weeks after sowing, the test plants were treated at the three-leaf stage with the compositions according to the invention. The compositions according to the invention formulated as spray powders or as emulsion concentrates were sprayed onto the green plant parts in various dosages with an application rate of 300 to 800 l/ha of water (equivalent). After the test plants have been left to stand in the greenhouse under optimal growth conditions for about 3 to 4 weeks, the action of the preparations is scored visually in comparison to untreated controls. The compositions according to the invention also have good post-emergence herbicidal activity against a broad spectrum of economically important gramineous and broadleaf weeds.

[2] = test system: Lamium purpureum; experiment: Post-emergence herbicidal action against Lamium purpureum
How it was run: (§4)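 Pot-grown plants, three weeks old at the three-leaf stage, received foliar sprays of various dosages. Visual assessment relative to untreated plants followed 3 to 4 weeks later.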

[3] = test system: Amaranthus palmeri; experiment: Post-emergence herbicidal action against Amaranthus palmeri; details: 21 DAT; 30 g of a.i./ha
How it was run: as §4

[4] = test system: Setaria viridis; experiment: Post-emergence herbicidal action against Setaria viridis; details: 21 DAT
How it was run: as §4

[5] = test system: Sorghum halepense; experiment: Post-emergence herbicidal action against Sorghum halepense
How it was run: as §4

[6] = test system: Digitaria sanguinalis; experiment: Post-emergence herbicidal action against Digitaria sanguinalis; details: (Z61) post-emergence; g of a.i./ha: 180, 100, 100 + 180
How it was run: as §4

[7] = test system: Poa annua; experiment: Post-emergence herbicidal action against Poa annua
How it was run: as §4

[8] = test system: Galium aparine; experiment: Post-emergence herbicidal action against Galium aparine
How it was run: as §4

[9] = test system: Matricaria inodora; experiment: Post-emergence herbicidal action against Matricaria inodora
[10] = test system: Chenopodium album; experiment: Post-emergence herbicidal action against Chenopodium album; details: g of a.i./ha: 180, 100, 100 + 180
Experimental: as §1, §2, §3

[11] = test system: Echinochloa crus-galli; experiment: Post-emergence herbicidal action against Echinochloa crus-galli; details: 21 DAT; 30 g of a.i./ha
How it was run: as §4

[12] = test system: Lolium rigidum (resistant biotype); experiment: Post-emergence herbicidal action against Lolium rigidum (resistant biotype)
How it was run: (§5)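 Rates are given as grams of active ingredient (100% active compound) per hectare. E^A is the summed effect of the individual applications and E^C the expected value by Colby, with ratings timed in days after application (DAT).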

[13] = test system: Phalaris minor; experiment: Post-emergence herbicidal action against Phalaris minor
How it was run: as §5

[14] = test system: Bromus sterilis; experiment: Post-emergence herbicidal action against Bromus sterilis
How it was run: as §5

[15] = test system: Digitaria horizontalis; experiment: Post-emergence herbicidal action against Digitaria horizontalis; details: (Z61) post-emergence; g of a.i./ha: 200, 100, 100 + 200
Excerpt: The following abbreviations are used in the description and the tables that follow: • g of a.i./ha=grams of active substance (active ingredient) (=100% active compound) per hectare; • The sum total of the effects of the individual applications is reported under E^A; • expected values according to Colby are each reported under E^C.
The rating period is reported in days after application (DAT).

[16] = test system: Viola tricolor; experiment: Post-emergence herbicidal action against Viola tricolor
How it was run: as §5

[17] = test system: Abutilon theophrasti; experiment: Post-emergence herbicidal action against Abutilon theophrasti; details: g of a.i./ha: 90, 30, 15, 15 + 90, 15 + 30
How it was run: as §5

[18] = (Z61) post-emergence, g of a.i./ha by row: 4, 1, 270, 90, 4 + 270, 1 + 270, 1 + 90, 90 g of a.i./ha
[19] = (Z61) post-emergence, g of a.i./ha by row: 4, 1, 270, 90, 4 + 270, 1 + 270, 1 + 90, 270 g of a.i./ha
[20] = (Z119) post-emergence, g of a.i./ha: 1, 270, 1 + 270

## O=C(Nc1ccc(F)cc1F)c1cccnc1Oc1cccc(C(F)(F)F)c1 [(B2.18) Diflufenican]
[1]
  Herbicidal action 28 DAT against Panicum maximum: 0%
[2]; 30 g of a.i./ha
  Herbicidal action 14 DAT against Lamium purpureum L.: 20%
  Herbicidal action 28 DAT against Lamium purpureum L.: 10%
[2]; 90 g of a.i./ha
  Herbicidal action 28 DAT against Lamium purpureum L.: 20%
[2]; (Z61) post-emergence, g of a.i./ha by row: 4, 1, 270, 30, 90, 4 + 270, 4 + 30, 1 + 270, 1 + 90, 1 + 30
  Herbicidal action 28 DAT against Lamium purpureum L.: 20%
[2]; (Z119) post-emergence, g of a.i./ha by row: 16, 30, 16 + 30
  Herbicidal action 14 DAT against Lamium purpureum L.: 20%
[3]
  Herbicidal action against Amaranthus palmeri (res.): 40%
[4]; 30 g of a.i./ha
  Herbicidal action against Setaria viridis: 10%
[4]; 90 g of a.i./ha
  Herbicidal action against Setaria viridis: 10%
[4]; 270 g of a.i./ha
  Herbicidal action against Setaria viridis: 15%
[5]; 21 DAT, 30 g of a.i./ha
  Herbicidal action against Sorghum halepense: 10%
[5]; (Z3) post-emergence, g of a.i./ha: 90, 30, 15, 5, 15 + 90, 5 + 90, 15 + 30, 5 + 30
  Herbicidal action 21 DAT against Sorghum halepense: 10%
[6]
  Herbicidal action 37 DAT against Digitaria sanguinalis: 0%
[7]; 30 g of a.i./ha
  Herbicidal action 28 DAT against Poa annua L.: 0%
[7]; 90 g of a.i./ha
  Herbicidal action 28 DAT against Poa annua L.: 0%
[7]; 270 g of a.i./ha
  Herbicidal action 28 DAT against Poa annua L.: 0%
[7]; (Z61) post-emergence, g of a.i./ha: 16, 1, 270, 90, 16 + 270, 16 + 90, 1 + 270, 1 + 90
  Herbicidal action 14 DAT against Poa annua L.: 20%
[7]; (Z119) post-emergence, g of a.i./ha: 16, 1, 270, 90, 30, 16 + 270, 16 + 90, 16 + 30, 1 + 270
  Herbicidal action 28 DAT against Poa annua L.: 0%
[8]; 30 g of a.i./ha
  Herbicidal action 28 DAT against Galium aparine: 0%
[8]; 90 g of a.i./ha
  Herbicidal action 28 DAT against Galium aparine: 20%
[8]; (Z119) post-emergence, g of a.i./ha by row: 1, 30, 1 + 30
  Herbicidal action 14 DAT against Galium aparine: 30%
[8]; (Z119) post-emergence, g of a.i./ha: 16, 4, 30, 16 + 30, 4 + 30
  Herbicidal action 28 DAT against Galium aparine: 0%
[9]; 90 g of a.i./ha
  Herbicidal action 14 DAT against Matricaria inodora: 50%
[9]; (Z61) post-emergence, g of a.i./ha: 4, 1, 30, 4 + 30, 1 + 30
  Herbicidal action 28 DAT against Matricaria inodora: 0%
[9]; (Z119) post-emergence, g of a.i./ha by row: 16, 4, 270, 90, 16 + 270, 4 + 90
  Herbicidal action 28 DAT against Matricaria inodora: 50%
[10]
  Herbicidal action 27 DAT against Chenopodium album: 20%
[11]
  Herbicidal action against Echinochloa crus-galli: 10%
[12]; 30 g of a.i./ha
  Herbicidal action 28 DAT against Lolium rigidum (resistant biotype): 0%
[12]; 90 g of a.i./ha
  Herbicidal action 28 DAT against Lolium rigidum (resistant biotype): 0%
[12]; 270 g of a.i./ha
  Herbicidal action 28 DAT against Lolium rigidum (resistant biotype): 0%
[12]; [18]
  Herbicidal action 14 DAT against Lolium rigidum (resistant biotype): 0%
[12]; [19]
  Herbicidal action 14 DAT against Lolium rigidum (resistant biotype): 10%
[12]; (Z61) post-emergence, g of a.i./ha: 4, 1, 270, 90, 4 + 270, 1 + 90, 90 g of a.i./ha
  Herbicidal action 28 DAT against Lolium rigidum (resistant biotype): 10%
[12]; (Z61) post-emergence, g of a.i./ha: 4, 1, 270, 90, 4 + 270, 1 + 90, 270 g of a.i./ha
  Herbicidal action 28 DAT against Lolium rigidum (resistant biotype): 20%
[12]; (Z119) post-emergence, g of a.i./ha by row: 16, 1, 90, 30, 270, 16 + 90, 16 + 30, 1 + 270, 30 g of a.i./ha
  Herbicidal action 14 DAT against Lolium rigidum (resistant biotype): 0%
[12]; (Z119) post-emergence, g of a.i./ha by row: 16, 1, 90, 30, 270, 16 + 90, 16 + 30, 1 + 270, 90 g of a.i./ha
  Herbicidal action 14 DAT against Lolium rigidum (resistant biotype): 5%
[12]; [20]
  Herbicidal action 28 DAT against Lolium rigidum (resistant biotype): 0%
[13]; 30 g of a.i./ha
  Herbicidal action 28 DAT against Phalaris minor: 0%
[13]; 90 g of a.i./ha
  Herbicidal action 28 DAT against Phalaris minor: 0%
[13]; 270 g of a.i./ha
  Herbicidal action 28 DAT against Phalaris minor: 5%
[13]; (Z119) post-emergence, g of a.i./ha: 16, 4, 270, 90, 30, 16 + 270, 16 + 90, 16 + 30, 4 + 270, 4 + 30, 90 g of a.i./ha
  Herbicidal action 28 DAT against Phalaris minor: 0%
[13]; (Z119) post-emergence, g of a.i./ha: 16, 4, 270, 90, 30, 16 + 270, 16 + 90, 16 + 30, 4 + 270, 4 + 30, 270 g of a.i./ha
  Herbicidal action 28 DAT against Phalaris minor: 5%
[13]; (Z119) post-emergence, g of a.i./ha: 16, 4, 270, 90, 270, 16 + 270, 16 + 90, 4 + 270
  Herbicidal action 14 DAT against Phalaris minor: 5%
[14]; [18]
  Herbicidal action 14 DAT against Bromus sterilis: 10%
[14]; [19]
  Herbicidal action 14 DAT against Bromus sterilis: 15%
[14]; (Z61) post-emergence, g of a.i./ha: 1, 270, 90, 1 + 270, 1 + 90, 90 g of a.i./ha
  Herbicidal action 28 DAT against Bromus sterilis: 15%
[14]; (Z61) post-emergence, g of a.i./ha: 1, 270, 90, 1 + 270, 1 + 90, 270 g of a.i./ha
  Herbicidal action 28 DAT against Bromus sterilis: 20%
[14]; [20]
  Herbicidal action 28 DAT against Bromus sterilis: 0%
[14]; (Z119) post-emergence, g of a.i./ha: 1, 270, 90, 1 + 270, 1 + 90
  Herbicidal action 14 DAT against Bromus sterilis: 5%
[14]; (Z148) post-emergence, g of a.i./ha: 1, 270, 90, 30, 1 + 270, 1 + 90, 1 + 30
  Herbicidal action 28 DAT against Bromus sterilis: 0%
[14]; (Z148) post-emergence, g of a.i./ha: 4, 1, 270, 90, 30, 4 + 270, 4 + 90, 4 + 30, 1 + 30, 30 g of a.i./ha
  Herbicidal action 14 DAT against Bromus sterilis: 0%
[14]; (Z148) post-emergence, g of a.i./ha: 4, 1, 270, 90, 30, 4 + 270, 4 + 90, 4 + 30, 1 + 30, 270 g of a.i./ha
  Herbicidal action 14 DAT against Bromus sterilis: 5%
[15]
  Herbicidal action 28 DAT against Digitaria horizontalis: 0%
[16]; (Z61) post-emergence, g of a.i./ha: 16, 1, 30, 16 + 30, 1 + 30
  Herbicidal action 28 DAT against Viola tricolor: 40%
[16]; (Z119) post-emergence, g of a.i./ha: 16, 270, 16 + 270
  Herbicidal action 14 DAT against Viola tricolor: 40%
[17]
  Herbicidal action 21 DAT against Abutilon theophrasti: 10%
